Experimental data: article PMC10222270, “Natural Product-Based Screening for Lead Compounds Targeting SARS CoV-2 M^pro” (Pharmaceuticals, 2023)
Several values for one entry are separate records, joined by “and”; a condition that tells them apart may be missing. Equal values may be shown once.

Key:
[1] = target: T1, SARS CoV-2 M^pro (Severe acute respiratory syndrome coronavirus 2, UniProt P0DTD1); assay: Surface plasmon resonance (SPR) binding to biotinylated M^pro
T1 construct: The main protease (M^pro) is a part of the polyprotein chain, also named 3C-like protease; SUMO (cleaved yes); His; made in house; host or cells: Escherichia coli BL21(DE3)

[2] = target: T1, SARS CoV-2 M^pro; assay: biochemical; type: biochemical; settings: for inhibition at 80 µM: read-out: Inhibition%(80μM)

SMILES | binding trend to M^pro ([1]; SPR, single concentration 200 μM) | Inhibition%(80μM) [2] | IC50 ([2]; 0.02%(v/v) Triton X−100 in buffer) [nM] | IC50 ([2]; Without Triton X−100) [nM] | inhibition at 80 µM [2] [%] | Kd ([1]; SPR multi-cycle mode, steady-state affinity, PBST, 7% DMSO) [µM]
COc1cc(C(=S)N2CCOCC2)ccc1O [vanitiolide, Vanitiolide] | no binding trends | 99.16% and 98.95% | 1420 ± 76 | 2840 ± 225 | 99.1 | –
CCCCCC/C=C\CCCCCCCc1cccc(O)c1C(=O)O [ginkgolic acid C15:1, Ginkgolic Acid C15:1] | – | 107.06% | – | 9350 ± 531 | 104 | 227
